“And” between values parts separate entries of the source, which are not always exact repeats. Identical values can stand only once. Like-named read-outs stand apart in the source and are kept apart here.
Tested on: advanced non-small-cell lung cancer patients
[1] = HER2 FISH- and/or EGFR mutation-
[2] = all 85 patients with EGFR mutation and P-Akt
[3] = all 89 patients with EGFR mutation analysis
[4] = all 98 patients with EGFR FISH and P-Akt
[5] = all 98 patients with EGFR IHC and P-Akt
[6] = all 102 patients, Example 1 analysis

Experimental: Eligibility included histologically confirmed NSCLC patients with measurable, locally advanced or metastatic disease, who had progressed or relapsed after chemotherapy, and patients ineligible for chemotherapy because they were elderly, had poor performance status, or comorbid medical condition. Before trial inclusion, smoking status was assessed and patients were classified as never, former (smoking cessation >6 months prior to trial inclusion), or current smokers (cessation <6 months before trial inclusion or active smoker).
Patients were evaluated for response according to the RECIST criteria (30). Tumor response was assessed by computer tomography scan every two months, with a confirmatory evaluation to be repeated in responding patients at least 4 weeks after the initial determination of response. […] Survival (OS) was calculated from the date of therapy initiation to the date of death or last contact.
Differences between the FISH groups were compared by Fisher's exact test or χ^2 test for qualitative variables and by t-student test or ANOVA for continuous variables. Normality of the distribution was assessed by Kolmogorov-Smirnov test. […] Risk factors associated with survival were evaluated using Cox's proportional-hazards regression model with a step-down procedure (33). Only those variables with significant results in univariate analysis were included in the multivariate analysis. The criteria for variable removal was the likelihood ratio statistic based on the maximum partial likelihood estimated (default p-value=0.10 for removal from the model).
Complete clinical information and tissue blocks were available from 80 out of 106 patients enrolled in the Akt clinical trial (Cappuzzo et al., ibid.), and from an additional 22 patients in the Expanded Access Study who were treated consecutively at the end of the Akt study and followed in the same way as patients in the Akt trial.
Eligibility for both studies included histologically confirmed NSCLC with measurable, locally advanced or metastatic disease, progressing or relapsing after chemotherapy or with medical contraindications for chemotherapy. Patients had performance status ranging from grade 0 to 2. Performance status was defined according to Eastern Cooperative Oncology Group (Oken et al., 1982) and considered grade 0 when the patient was fully active and able to perform all pre-disease activities without restriction, grade 1 when the patient was restricted in physically strenuous activity but ambulatory and able to perform work of a light or sedentary nature, and grade 2 when the patient was ambulatory and capable of all self-care but unable to perform any work activities.
Tumor response was assessed by computer tomography scan after 2 months, with a confirmatory evaluation to be repeated in responders and in patients with stable disease at least 4 weeks after the initial determination of response. […] Survival was calculated from the date of therapy initiation to the date of death or to the date of last contact.
Differences between and among groups were compared using Fisher's exact test or Pearson's chi square test for qualitative variables and using student's t test or analysis of variance for continuous variables. Normality of the distribution was assessed using the Kolmogorov-Smirnov test (Curiel et al., 1990).

COc1cc2ncnc(Nc3ccc(F)c(Cl)c3)c2cc1OCCCN1CCOCC1 [gefitinib]
TTP (HER2 FISH+/EGFR IHC+): 12.3 months | OS (HER2 FISH+/EGFR IHC-): 3.3 months | TTP (HER2 FISH+/EGFR IHC-): 2.3 months | DCR (HER2 FISH+/EGFR mutation+): 87.5% | OR (HER2 FISH+/EGFR mutation+): 87.5% | OS (HER2 FISH+/EGFR mutation+): not reached | TTP (HER2 FISH+/EGFR mutation+): 15.5 months | OR (HER2 FISH+/EGFR mutation-): no patient responded | TTP (HER2 FISH+/EGFR mutation-): 2.3 months | DCR (HER2 FISH-): 33.3% | OR (HER2 FISH-): 6.4% | OS (HER2 FISH-): 8.4 months | TTP (HER2 FISH-): 2.7 months | DCR (HER2 FISH- and/or EGFR FISH-): 33.0% | OR (HER2 FISH- and/or EGFR FISH-): 6.8% | median OS (HER2 FISH- and/or EGFR FISH-): 8.3 months | median TTP (HER2 FISH- and/or EGFR FISH-): 2.6 months | DCR (HER2 FISH- and/or EGFR IHC-): 34.5% | OR (HER2 FISH- and/or EGFR IHC-): 7.1% | OS (HER2 FISH- and/or EGFR IHC-): 8.4 months | TTP (HER2 FISH- and/or EGFR IHC-): 2.6 months | DCR [1]: 31.3% | OR [1]: 5.0% | OS [1]: 8.3 | TTP [1]: 2.6 months | DCR (HER2 FISH-/EGFR FISH+): 30.0% | OR (HER2 FISH-/EGFR FISH+): 10.0% | median OS (HER2 FISH-/EGFR FISH+): 9.3 months | median TTP (HER2 FISH-/EGFR FISH+): 5.3 months | OR (HER2 FISH-/EGFR FISH-): 1.6% | median OS (HER2 FISH-/EGFR FISH-): 7.3 months | median TTP (HER2 FISH-/EGFR FISH-): 2.6 months | OR (HER2 FISH-/EGFR IHC+): 11.1% | OS (HER2 FISH-/EGFR IHC+): 11.3 months | TTP (HER2 FISH-/EGFR IHC+): 4.2 months | DCR (HER2 FISH-/EGFR IHC-): 13.7% | OR (HER2 FISH-/EGFR IHC-): 0% | OS (HER2 FISH-/EGFR IHC-): 5.0 months | TTP (HER2 FISH-/EGFR IHC-): 2.1 months | DCR (HER2 FISH-/EGFR mutation+): 28.5% | OR (HER2 FISH-/EGFR mutation+): 14.2% | OS (HER2 FISH-/EGFR mutation+): 5.7 | TTP (HER2 FISH-/EGFR mutation+): 2.8 months | DCR (HER2 FISH-/EGFR mutation-): 32.2% | OR (HER2 FISH-/EGFR mutation-): 4.8% | Disease Control Rate (Italian Cohort, Table 12): 39% | Median Survival (Italian Cohort, Table 12): 9 (6-11) | Median Time to Progression (Italian Cohort, Table 12): 3 (2-4) | One-YR Survival (Italian Cohort, Table 12): 41% (31-51) | Overall Response (Italian Cohort, Table 12): 13% | Disease Control Rate (P-Akt negative): 22% | response rate (P-Akt negative): 0% | time to progression (P-Akt negative): 2.1 months | Survival (P-Akt positive): 11.4 months | response rate (P-Akt positive): 21% | time to progression (P-Akt positive): 4.2 months | 1-year Cumulative Survival ± SD (adenocarcinoma): 45 ± 7% | Median Survival (adenocarcinoma): 11.3 months | Median Time to Progression (adenocarcinoma): 3.2 months | Objective Response (adenocarcinoma): 8/15% | Median Time to Progression [2]: 2.9 months | Objective Response [2]: 12/14% | 1-year survival [3]: 41 ± 5 | MS [3]: 9.4 mo | OR [3]: 12 (13%) | TTP [3]: 2.9 mo | 1-year Cumulative Survival ± SD [4]: 47 ± 6% | Disease Control Rate [4]: 40/40% | Median Survival [4]: 11.5 months | Median Time to Progression [4]: 4.5 months | Objective Response [4]: 14/14% | MS (median overall survival) (all 98 patients with EGFR IHC): 9.5 mo | OR (objective response) (all 98 patients with EGFR IHC): 14 (14%) | PD (progressive disease) (all 98 patients with EGFR IHC): 58 (59%) | TTP (all 98 patients with EGFR IHC): 2.9 mo | 1-year Cumulative Survival ± SD [5]: 45 ± 6% | Disease Control Rate [5]: 40/40% | Median Survival [5]: 11.3 months | Median Time to Progression [5]: 3.2 months | Objective Response [5]: 14/14% | Complete response (CR) (all 102 patients): 1% | Partial responses (PR) (all 102 patients): 12.7% | % Patients without disease progression at 12 months [6]: 18.6% | Complete and Partial Response [6]: 13.7% and 14% | Disease Control Rate [6]: 39.2% and 39% | Median Time to Progression [6]: 2.9 months | One-year Survival Rate [6]: 45.1% | Progressive Disease [6]: 60.8% | Stable Disease [6]: 25.5% | Median Time to Progression (all 102 patients, Table 1): 2.9 months | Objective Response (all 102 patients, Table 1): 14% and 14/14% | Progressive Disease (all 102 patients, Table 1): 60% and 62/60% | 1-year Cumulative Survival ± SD (bronchioloalveolar): 67 ± 16% | Median Survival (bronchioloalveolar): 16.5 months | Median Time to Progression (bronchioloalveolar): 3.0 months | Objective Response (bronchioloalveolar): 3/33% | Progressive Disease (bronchioloalveolar): 5/56% | 1-year Cumulative Survival ± SD (current smoker): 30 ± 6% | Median Survival (current smoker): 4.5 months | Median Time to Progression (current smoker): 2.3 months | Objective Response (current smoker): 3/6% | Progressive Disease (current smoker): 39/72% | 1-year Cumulative Survival ± SD (female): 48 ± 9% | Median Survival (female): 11.3 months | Median Time to Progression (female): 5.2 months | Progressive Disease (female): 16/46% | median TTP (females, Example 1 analysis): 4.5 months | response rate (former and current smokers): 20.8% | 1-year Cumulative Survival ± SD (former smoker): 55 ± 9% | Median Time to Progression (former smoker): 3.6 months | Objective Response (former smoker): 5/15% | Progressive Disease (former smoker): 17/51% | 1-year Cumulative Survival ± SD (large cell): 0 ± 0% | Median Survival (large cell): 0.8 months | Median Time to Progression (large cell): 0.8 months | Objective Response (large cell): 0% | Progressive Disease (large cell): 2/100% | Median Time to Progression (male): 2.7 months | Objective Response (male): 6.0% and 4/6% | median TTP (males, Example 1 analysis): 2.7 months | 1-year Cumulative Survival ± SD (never smoker): 47 ± 14% | Median Survival (never smoker): 10.9 months | Median Time to Progression (never smoker): 5.3 months | Progressive Disease (never smoker): 6/40% | Median Time to Progression (performance status 0): 2.6 months | Objective Response (performance status 0): 5/10% | Progressive Disease (performance status 0): 32/65% | 1-year Cumulative Survival ± SD (performance status 1): 47 ± 8% | Median Survival (performance status 1): 10.9 months | Median Time to Progression (performance status 1): 4.2 months | Progressive Disease (performance status 1): 22/54% | 1-year Cumulative Survival ± SD (performance status 2): 22 ± 13% | Median Survival (performance status 2): 2.7 months | Median Time to Progression (performance status 2): 2.1 months | Objective Response (performance status 2): 2/17% | 1-year Cumulative Survival ± SD (squamous cell): 22 ± 9% | Median Time to Progression (squamous cell): 2.2 months | Objective Response (squamous cell): 2/8% | 1-year Cumulative Survival ± SD (stage III): 36 ± 13% | Median Time to Progression (stage III): 6.0 months | Objective Response (stage III): 1/7% | Median Time to Progression (stage IV): 2.7 months | Objective Response (stage IV): 13/15% | 1-year Cumulative Survival ± SD (undifferentiated): 45 ± 15% | Median Time to Progression (undifferentiated): 2.1 months | Objective Response (undifferentiated): 1/9%

From patent US9434994B2, “Methods for prediction of clinical outcome to epidermal growth factor receptor inhibitors by non-small cell lung cancer patients” (The Regents of the University of Colorado, a body corporate, priority 2004, dated 2016)
